Like-named read-outs stand apart in the source and are kept apart here.
Assays:
A. flavus = test: microbe, parasite or virus in culture; assay type: cell-based, Aspergillus flavus; conditions: 10 to 100 µM; complexes compared with their ligand
[1] = Cytotoxicity assay (CellTiter 96 AQueous One) on Hs27; assay type: cell-based, human; conditions: human, Hs27 normal skin cells, Hs27, 24 h, dose 0 = 100.00, read-out: Growth inhibition data
Procedure: (§1) The best antifungal and/or antiaflatoxigenic compounds were tested to determine their cytotoxic activity against human normal cell lines deriving from lung (HFL1, ATCC and CCL-153), skin (Hs27, ATCC, CRL1634) and colon (Crl1790, ATCC, CCD 841 CoN) and a cell line deriving from a hematological tumor (U937, ATCC and CRL-3253). These different cell lines have been chosen to simulate the different human exposition routes to pesticide. Cell culture conditions have been previously reported. Compound cytotoxicity was determined using CellTiter 96® AQueous One Solution Cell Proliferation Assay (Promega Corporation, Madison, WI, USA). The very detailed protocol was described by Bartoli et al.. In brief, cells were seeded in a 96-well plate at a density of 5000 cells/well and after 24 h cells were treated with different concentrations of the compounds (0.5–1–5–10–50–100 µM). After the treatment period (24 h), the CellTiter Reagent was added to each well (20 µL/well) and the plate incubated for 4 h at 37 °C. The plate was then read at 485 nm in a multiwell plate reader (TECAN SpectraFluor Plus, Männedorf, Switzerland).

Hs27 cells = test: as above; assay type: cell-based, human; conditions: Hs27 cells, 24 h treatment
Procedure: as §1

S. typhimurium TA100 = conditions: for TA100 + S9 revertants/plate: NC 106.5 ± 11.9; for TA100 revertants/plate: NC 95.8 ± 5.5

## CC(=NNC(N)=S)c1cccs1 [2-actpTS, 2-acetylthiophenethiosemicarbazone]
A. flavus
  impact on fungal growth: modest inhibitory activity
[1]; 0.5 µM
  viability at 24 h, 0.5 µM: 99.9 ± 7.65%
[1]; 1 µM
  viability at 24 h, 1 µM: 97 ± 4.78%
[1]; 5 µM
  viability at 24 h, 5 µM: 100 ± 5.97%
[1]; 10 µM
  viability at 24 h, 10 µM: 97.7 ± 3.73%
[1]; 50 µM
  viability at 24 h, 50 µM: 100 ± 9.25%
[1]; 100 µM
  viability at 24 h, 100 µM: 87.3 ± 8.07%
Hs27 cells
  cytotoxic effect: did not show cytotoxic effect
S. typhimurium TA100; +S9, 0.1 µM/plate
  TA100 + S9 MR (mutagenicity ratio): 0.9
  TA100 + S9 revertants/plate: 98.0 ± 24.0 revertants/plate
S. typhimurium TA100; +S9, 1.0 µM/plate
  TA100 + S9 MR (mutagenicity ratio): 1.0
  TA100 + S9 revertants/plate: 104.0 ± 15.6 revertants/plate
S. typhimurium TA100; +S9, 10.0 µM/plate
  TA100 + S9 MR (mutagenicity ratio): 1.0
  TA100 + S9 revertants/plate: 107.5 ± 0.7 revertants/plate
S. typhimurium TA100; +S9, 50.0 µM/plate
  TA100 + S9 MR (mutagenicity ratio): 0.9
  TA100 + S9 revertants/plate: 90.5 ± 13.4 revertants/plate
S. typhimurium TA100; +S9, 100.0 µM/plate
  TA100 + S9 MR (mutagenicity ratio): 0.8
  TA100 + S9 revertants/plate: 88.0 ± 8.5 revertants/plate
S. typhimurium TA100; -S9, 0.1 µM/plate
  TA100 MR (mutagenicity ratio): 1.0
  TA100 revertants/plate: 92.0 ± 14.1 revertants/plate
S. typhimurium TA100; -S9, 1.0 µM/plate
  TA100 MR (mutagenicity ratio): 1.1
  TA100 revertants/plate: 101.5 ± 4.9 revertants/plate
S. typhimurium TA100; -S9, 10.0 µM/plate
  TA100 MR (mutagenicity ratio): 1.1
  TA100 revertants/plate: 104.5 ± 9.2 revertants/plate
S. typhimurium TA100; -S9, 50.0 µM/plate
  TA100 MR (mutagenicity ratio): 0.9
  TA100 revertants/plate: 87.5 ± 7.8 revertants/plate
S. typhimurium TA100; -S9, 100.0 µM/plate
  TA100 MR (mutagenicity ratio): 1.0
  TA100 revertants/plate: 99.5 ± 0.7 revertants/plate
